# Test results reported in ChEMBL document CHEMBL1132032, “3-Acyloxy-2-phenalkylpropyl amides and esters of homovanillic acid as novel vanilloid receptor agonists” (Bioorg Med Chem Lett, 1999).
# The source made the active and inactive calls. The calls are words filed in the database; no cut-off is given here.
# Legend:
# [1] = target: T1, Vanilloid receptor (Rattus norvegicus) (UniProt Q9ERZ8+Q9WUD2+O35433); assay: Cation influx relative to capsaicin (CAP) in cultured neonatal rat dorsal root ganglia (No response); type: functional
# [2] = target: Transient receptor potential cation channel subfamily V member 1 (Rattus norvegicus, UniProt O35433); assay: In vitro binding affinity towards vanilloid receptor by [3H]RTX displacement.
# [3] = target: T1, Vanilloid receptor (Rattus norvegicus); assay: Cation influx relative to capsaicin (CAP) in cultured neonatal rat dorsal root ganglia (+ = similar to CAP); type: functional
# [4] = target: T1, Vanilloid receptor (Rattus norvegicus)
# Description: Cation influx relative to capsaicin (CAP) in cultured neonatal rat dorsal root ganglia (+++ = 100xCAP)
# [5] = target: T1, Vanilloid receptor (Rattus norvegicus); assay: Cation influx relative to capsaicin (CAP) in cultured neonatal rat dorsal root ganglia (W = Weaker than CAP); type: functional
# [6] = target: T1, Vanilloid receptor (Rattus norvegicus); assay: Cation influx relative to capsaicin (CAP) in cultured neonatal rat dorsal root ganglia (++ = 10xCAP); type: functional
# Transient receptor potential cation channel subfamily V member 1, sequence (O35433 whole entry): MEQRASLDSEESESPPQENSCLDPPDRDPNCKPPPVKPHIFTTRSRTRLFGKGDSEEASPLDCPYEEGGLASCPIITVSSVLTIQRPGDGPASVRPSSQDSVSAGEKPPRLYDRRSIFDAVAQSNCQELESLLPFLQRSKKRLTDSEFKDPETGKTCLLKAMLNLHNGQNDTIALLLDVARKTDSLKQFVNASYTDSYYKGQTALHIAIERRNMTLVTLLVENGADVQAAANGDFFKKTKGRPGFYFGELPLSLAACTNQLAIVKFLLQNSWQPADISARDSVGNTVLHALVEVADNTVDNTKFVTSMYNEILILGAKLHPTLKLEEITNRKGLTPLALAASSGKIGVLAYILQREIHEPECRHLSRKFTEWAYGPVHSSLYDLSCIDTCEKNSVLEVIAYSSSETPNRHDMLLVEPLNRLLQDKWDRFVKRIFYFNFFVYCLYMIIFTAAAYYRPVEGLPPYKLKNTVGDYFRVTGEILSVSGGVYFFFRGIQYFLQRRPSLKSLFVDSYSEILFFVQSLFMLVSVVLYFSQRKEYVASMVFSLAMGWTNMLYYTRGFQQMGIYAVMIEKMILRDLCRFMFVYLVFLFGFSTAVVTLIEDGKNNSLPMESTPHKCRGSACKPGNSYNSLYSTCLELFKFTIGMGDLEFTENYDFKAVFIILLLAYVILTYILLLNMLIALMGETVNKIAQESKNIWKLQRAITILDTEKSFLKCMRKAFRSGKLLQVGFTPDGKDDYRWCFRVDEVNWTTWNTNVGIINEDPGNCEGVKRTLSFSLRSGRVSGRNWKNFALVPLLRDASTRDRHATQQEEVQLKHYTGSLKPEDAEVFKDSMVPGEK
# T1 sequence (O35433 whole entry, looked up): as the sequence (O35433 whole entry) above
# T1 sequence (Q9ERZ8 whole entry, looked up): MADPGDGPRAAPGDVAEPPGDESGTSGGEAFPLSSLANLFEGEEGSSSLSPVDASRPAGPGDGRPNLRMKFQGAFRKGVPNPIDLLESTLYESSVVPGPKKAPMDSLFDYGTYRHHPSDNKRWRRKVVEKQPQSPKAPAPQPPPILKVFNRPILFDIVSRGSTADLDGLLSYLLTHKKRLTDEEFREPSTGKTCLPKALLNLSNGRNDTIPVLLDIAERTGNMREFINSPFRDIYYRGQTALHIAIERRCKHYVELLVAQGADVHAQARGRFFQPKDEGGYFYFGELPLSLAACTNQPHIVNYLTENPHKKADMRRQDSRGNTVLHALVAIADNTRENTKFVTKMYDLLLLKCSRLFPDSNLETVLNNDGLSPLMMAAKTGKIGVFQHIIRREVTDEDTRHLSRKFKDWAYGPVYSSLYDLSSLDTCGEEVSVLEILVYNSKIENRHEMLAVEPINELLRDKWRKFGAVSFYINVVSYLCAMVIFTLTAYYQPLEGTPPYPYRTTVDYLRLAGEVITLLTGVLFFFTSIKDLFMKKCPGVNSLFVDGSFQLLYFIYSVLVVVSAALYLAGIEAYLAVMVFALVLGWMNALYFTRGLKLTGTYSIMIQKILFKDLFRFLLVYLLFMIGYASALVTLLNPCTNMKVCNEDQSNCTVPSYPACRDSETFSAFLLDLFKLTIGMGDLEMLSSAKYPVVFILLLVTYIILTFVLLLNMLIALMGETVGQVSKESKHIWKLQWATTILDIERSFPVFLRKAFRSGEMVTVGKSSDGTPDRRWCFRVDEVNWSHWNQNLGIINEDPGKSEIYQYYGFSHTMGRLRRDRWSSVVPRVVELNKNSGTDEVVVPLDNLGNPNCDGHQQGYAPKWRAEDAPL
# T1 sequence (Q9WUD2 whole entry, looked up): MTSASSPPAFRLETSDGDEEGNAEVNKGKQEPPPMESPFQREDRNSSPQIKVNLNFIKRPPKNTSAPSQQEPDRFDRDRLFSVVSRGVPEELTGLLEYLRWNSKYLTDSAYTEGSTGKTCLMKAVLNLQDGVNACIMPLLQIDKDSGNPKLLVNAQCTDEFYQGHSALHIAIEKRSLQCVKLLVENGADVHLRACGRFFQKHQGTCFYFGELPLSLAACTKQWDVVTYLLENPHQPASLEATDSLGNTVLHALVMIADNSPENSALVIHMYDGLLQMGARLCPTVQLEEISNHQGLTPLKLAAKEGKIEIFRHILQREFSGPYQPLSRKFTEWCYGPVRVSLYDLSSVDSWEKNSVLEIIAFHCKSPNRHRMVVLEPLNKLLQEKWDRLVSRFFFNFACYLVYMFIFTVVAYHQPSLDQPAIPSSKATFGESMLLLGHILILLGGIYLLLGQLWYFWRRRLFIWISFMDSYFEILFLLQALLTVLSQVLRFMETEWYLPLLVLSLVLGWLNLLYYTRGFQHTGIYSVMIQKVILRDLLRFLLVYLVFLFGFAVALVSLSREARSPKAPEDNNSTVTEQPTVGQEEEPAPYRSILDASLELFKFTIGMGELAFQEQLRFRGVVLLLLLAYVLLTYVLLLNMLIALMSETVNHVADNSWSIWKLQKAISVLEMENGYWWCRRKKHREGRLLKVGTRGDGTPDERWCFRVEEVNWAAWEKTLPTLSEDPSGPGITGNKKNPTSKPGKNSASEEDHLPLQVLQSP
SMILES,Cation influx [1],Ki [2] [µM],further results
COc1cc(CC(=O)OCC(COCc2ccccc2)COC(C)=O)ccc1O (stereo unspecified),inactive,> 100,–
COc1cc(CC(=O)NCCCc2ccc(C)c(C)c2)ccc1OCCN [DAVASAICIN],–,1.4,Cation influx [3]: Active
C=C(C)[C@]12C[C@@H](C)[C@@]34O[C@](Cc5ccccc5)(O[C@@H]1[C@@H]3C=C(COC(=O)Cc1ccc(O)c(OC)c1)C[C@]1(O)C(=O)C(C)=C[C@@H]41)O2 [RESINIFERATOXIN],–,2.3e-05,Cation influx [4]: Active
COc1cc(CC(=O)NC/C(=C\Cc2ccccc2)COC(C)=O)ccc1O,–,12.9,Cation influx [5]: Partially active
COc1cc(CC(=O)NCC(COC(C)=O)Cc2ccccc2)ccc1O (stereo unspecified),–,19.3,Cation influx [5]: Partially active
COc1cc(CC(=O)NCC(COCc2ccccc2)COC(C)=O)ccc1O (stereo unspecified),inactive,78,–
COc1cc(CC(=O)OC/C(=C\COCc2ccccc2)COC(C)=O)ccc1O,inactive,> 100,–
COc1cc(CC(=O)OCC(COC(C)=O)OCc2ccccc2)ccc1O (stereo unspecified),inactive,> 100,–
COC(=O)/C=C/C(CNC(=O)Cc1ccc(O)c(OC)c1)Cc1ccccc1 (stereo unspecified),–,13.5,Cation influx [5]: Partially active
COc1cc(CC(=O)NC/C(=C/Cc2ccccc2)COC(C)=O)ccc1O,–,29.2,Cation influx [5]: Partially active
COc1cc(CC(=O)NCC(CCc2ccccc2)COC(=O)C(C)(C)C)ccc1O (stereo unspecified),–,0.295,Cation influx [6]: Active
COc1cc(CC(=O)NCC(COC(C)=O)OCc2ccccc2)ccc1O (stereo unspecified),inactive,> 100,–
COc1cc(CC(=O)OCC(COC(C)=O)Cc2ccccc2)ccc1O (stereo unspecified),inactive,> 100,–
COc1cc(CC(=O)NCC(/C=C/C(=O)OC(C)(C)C)Cc2ccccc2)ccc1O (stereo unspecified),–,0.48,Cation influx [6]: Active
COc1cc(CC(=O)NC/C(=C\Cc2ccccc2)COC(=O)C(C)(C)C)ccc1O,–,1.22,Cation influx [6]: Active
COc1cc(CC(=O)NCC(COC(=O)C(C)(C)C)Cc2ccccc2)ccc1O (stereo unspecified),–,0.404,Cation influx [6]: Active
COc1cc(CC(=O)OC/C(=C/COCc2ccccc2)COC(C)=O)ccc1O,inactive,> 100,–
COc1cc(CC(=O)NCC(CCc2ccccc2)COC(C)=O)ccc1O (stereo unspecified),–,45.2,Cation influx [5]: Partially active
